Legend:
miR-124a [1] = test: Expression of precursor miR-124a by conventional RT-PCR in HCT-116 cells; format: cell-based, human; settings: 5-aza-2-deoxycytidine (1 µM) for 72 h
Procedure: (§1) GAPDH was used as internal control. PCR products were analyzed in a 3% agarose gel. Realtime PCR analysis of miRNAs was performed as previously described (Biotechniques 39:519-525). In brief, total RNA was isolated from cell lines or tissues using Trizol reagent and the small RNA fraction was further isolated using the miRVANA kit (Ambion). 500 ng of the small RNA fraction was polyadenylated by poly(A) polymerase (PAP, Ambion) at 37° C. for 1 hr in a 6 uL reaction. After phenol-chloroform extraction and ethanol precipitation the polyadenylated small RNAs were reversed transcribed according to the manufacturer's protocols using 200U SuperScript-II Reverse Transcriptase (RT, Invitrogen) and 0.5 ug poly(T) adapter (GCG AGC ACA GM TTAATACGACTCACTATAGGTTTTTTTTTT TTV N) (SEQ ID NO:36). The small cDNAs were then treated with RNAse H at 37° C. for 1 hr and finally diluted 240 fold. Negative controls were included in both PAP and RT reactions. Moreover, two additional RT reactions were performed using half and double the input of polyadenylated small RNAs to ensure the linearity of the reverse transcription step. Finally, the melting temperature for each miRNA was experimentally determined from the thermal dissociation curves using ABI Prism 7900HT (Applied Biosystems, Foster City, Calif., USA). […]

miR-124a [2] = test: Expression of mature miR-124a by quantitative RT-PCR in HCT-116 cells; format: cell-based, human; settings: 5-aza-2-deoxycytidine (1 µM) for 72 h
Procedure: as §1, with “Moreover, two additional RT reactions were performed using half and double the input of polyadenylated small RNAs to ensure the linearity of the reverse transcription step.” left out
Each set of PCR reactions included a dilution series of a reference cDNA to be used for quantification.

miR-124a CpG island = test: Chromatin immunoprecipitation assay for histone modification marks and methyl-CpG binding domain proteins; format: cell-based, human; settings: HCT-116 cells, 5-aza-2-deoxycytidine (1 µM) for 72 h
Procedure: Standard ChIP assays were performed as previously described (3). In brief, cells were treated with 1% formaldehyde for 15 min. Then, chromatin was sheared with a Bioruptor™ (Diagenode) to an average length of 0.4-0.8 kb for this analysis. The following antibodies were used: anti-MeCP2 (ab3752), anti-MBD2 (ab3754), and anti-trimethyl-K4 histone H3 (ab8580) (ab1220) (Abcam) and anti-acetyl H3 (06-599) and anti-acetyl H4 (06-598) (Upstate biotechnologies). PCR amplification was performed in 20 μl with specific primers for each of the analyzed promoters.
for miR-124a1 5′-CM AGA GCC TTT GGA AGA CG-3′ (sense) (SEQ ID NO: 40) and 5′-GGAAGAGGGGTGGGTAGAAG-3′ (antisense) (SEQ ID NO: 41), for miR-124a2 5′-GCGTGGTCCTTAAAAACCTG-3′ (sense) (SEQ ID NO: 42) and 5′-CCATGCCATTTACAGCACAC-3′ (antisense) (SEQ ID NO: 43); and for miR-124a3 5′-GGA GM GTG TGG GCT CCT C-3′ (sense) (SEQ ID NO: 44) and 5′-AAT CM GGT CCG CTG TGA AC-3′ (antisense) (SEQ ID NO:45). For each promoter, the sensitivity of PCR amplification was evaluated on serial dilutions of total DNA collected after sonication (input fraction). PCR amplifications were carried out with a variable number of cycles at 94° C. for 30 s, 60° C. for 30 s and 72° C. for 30 s. The amplified DNA was separated on 2% agarose gel and visualized with ethidium bromide.

CDK6 = test: Western blot for CDK6 in HCT-116 cells; format: cell-based, human; settings: AZA 1 µM 72 h, miR-124a precursor 100 nM RNA duplexes, 48 h after transfection
Source text: (§2) Analyses of CDK6 and phosphorylated Rb expression by Western blot, immunohistochemistry and RT-PCR. We collected cells by centrifugation and washed cell pellets twice with phosphate-buffered saline buffer. Total extracts were fractionated on a SDS-PAGE gel and transferred to a polyvinylidene difluoride membrane with […] (Immobilon PSQ, Millipore). The membranes were blocked in 5% milk PBS-T (phosphate-buffered saline with 0.1% Tween-20) and immunoprobed with antibodies against CDK6 (1:1000; Cell Signaling) and P-Rb-S807/811 (1:1000; Cell Signaling). An antibody to β-actin (1:5000; Sigma) was used as a loading control. Immunoreactive bands were visualized using a chemiluminescent substrate (Amersham) after incubation of the membrane with secondary antibodies conjugated to horseradish peroxidase.

CDK6 mRNA = test: RT-PCR analyses of CDK6 mRNA in HCT-116 cells; format: cell-based, human; settings: AZA 1 µM 72 h, miR-124a precursor 100 nM RNA duplexes, 48 h after transfection
Rb = test: Western blot for phosphorylated Rb (P-Rb-S807/811) in HCT-116 cells; format: cell-based, human; settings: AZA 1 µM 72 h, miR-124a precursor 100 nM RNA duplexes, 48 h after transfection
Source text: as §2

miR-124a [3] = test: Expression analyses of miR-124a by RT-PCR in MCF-7 breast cancer cell line; settings: MCF-7 cells (miR-124a methylated)
[4] = listed as DNA demethylating agent

histone modification marks linked to transcriptional activity (acetylation of histones H3 and H4, trimethylation of lysine 4 of histone H3) in the miR-124a CpG island (miR-124a CpG island): the opposite scenario is observed
occupancy of the miR-124a CpG island by MBDs (MeCP2 and MBD2) (miR-124a CpG island): the opposite scenario is observed
occupancy of the miR-124a CpG island by MBDs (MeCP2 and MBD2) (miR-124a CpG island; listed as demethylating agent): release of binding by MBDs
Structure (SMILES): Nc1ncn([C@H]2C[C@H](O)[C@@H](CO)O2)c(=O)n1 [AZA, 5-aza-2′-deoxycytidine]
precursor miR-124a expression (miR-124a [1]): miR-124a upregulation
precursor miR-124a expression (miR-124a [1]; [4]): restored
mature miR-124a expression (miR-124a [2]): miR-124a upregulation
mature miR-124a expression (miR-124a [2]; [4]): restored
histone modification marks linked to transcriptional activity (acetylation of histones H3 and H4, trimethylation of lysine 4 of histone H3) in the miR-124a CpG island (miR-124a CpG island; listed as demethylating agent): emergence of the histone marks of active transcription
CDK6 protein level (CDK6): reduction in CDK6 levels
CDK6 protein level (CDK6; listed as demethylating agent): CDK6 downregulation
CDK6 mRNA expression level (CDK6 mRNA): do not demonstrate any change
CDK6 mRNA expression level (CDK6 mRNA; listed as demethylating agent): no difference
phosphorylation of Rb in the residues 807 and 811 (Rb; [4]): hypophosphorylated
phosphorylation of Rb in the residues 807 and 811 (Rb; listed as demethylating drug): reduced Rb phosphorylation
miR-124a expression (miR-124a [3]): miR-124a upregulation
